Test results as given in patent publication US6906074B2, “2-phenylpiperazine derivatives” (Nippon Zoki Pharmaceutical Co., Ltd., priority 2002, dated 2005).
Marks after values point to notes of the source that are not given here. Values belong to the molecule of their own block, whether it stands above or below them.

Tests used:
human NK1 receptors = human NK1 receptors (Homo sapiens, UniProt P25103); test: Binding assay for human NK1 receptors ((3H)-Sar9-SP, human NK1-CHO cells)
[1] = test system: Neurokinin A-induced increase of vascular permeability (tachykinin receptor); test: Neurokinin A-induced increase of vascular permeability in guinea pig skin (Evans Blue dye); assay type: in vivo, guinea pigs; conditions: Neurokinin A 100 pmole/site, 10 mg/kg oral
Method: (§1) The compounds of the present invention and synthesized LY-303870 were suspended or dissolved in 0.5% sodium carboxymethylcellulose solution, and orally administered at the dose of 5 mL/kg. to male Hartley SPF guinea pigs of 6 week age.
(§2) Guinea pigs, sheared of fur, were anesthetized with ether and 1% Evan Blue dye in physiological saline (1 mL/500 g b.w.) was injected into their fore-leg intravenously. Immediately after the dye injection, SP (1 pmol/site), NKA (100 pmol/site) and NKB (100 pmol/site) in physiological saline were injected dorsal intradermally (0.05 mL/site) whereby the reaction of increase of vascular permeability was induced. Half an hour after tachykinin challenge, the animals were sacrificed by decapitation and bloodletting, and the dorsal skin was removed and the amount of transuded blue dye thereof was measured. Namely, the blue dyed sites were punched out using a punch for leather (16 mm diameter), of which 2 pieces were allowed to stand at 37° C. overnight in a covered tube with addition of 1 mL of 2 mol/L KOH solution. After stirring well, 6 mL of a mixture of 2 mol/L H3PO4 solution and acetone (1:3) were added thereto and Evans Blue dye was extracted by vigorous shaking for 10 minutes. After the precipitate was filtered off, the absorbance of the filtrate was measured at 620 nm with a spectrophotometer and the amount of dye was determined from the calibration curve. Nonspecific reaction was estimated from the amount of transuded dye by the injection of physiological saline. The significant difference in the average values between the control group and the test compound-treated group was calculated by means of a Student's t-test or Dunnett's test (Statistical Library I, two-sided test, Yukms).
(§3) The tested compounds were orally administered at a dose of 10 mg/kg at various points from 30 min to 8 hrs before the induction of tachykinin-induced increase of vascular permeability. An example of the results is shown in Table 2 (* and ** stand for the significant difference of p<0.05 and p<0.01 respectively compared to control).

[2] = test system: Neurokinin B-induced increase of vascular permeability (tachykinin receptor); test: Neurokinin B-induced increase of vascular permeability in guinea pig skin (Evans Blue dye); assay type: in vivo, guinea pigs; conditions: Neurokinin B 100 pmole/site, 10 mg/kg oral
Method: as §1, §2, §3

[3] = test system: Substance P-induced increase of vascular permeability (tachykinin receptor); test: Substance P-induced increase of vascular permeability in guinea pig skin (Evans Blue dye); assay type: in vivo, guinea pigs; conditions: Substance P 1 pmole/site, 10 mg/kg oral
Method: as §1, §2, §3

[4] = 0.5 hr from administration to induction
[5] = 1 hr from administration to induction
[6] = 2 hr from administration to induction
[7] = 4 hr from administration to induction
[8] = 8 hr from administration to induction
[9] = 3 hr from administration to induction

human NK1 receptors, sequence (P25103 whole entry): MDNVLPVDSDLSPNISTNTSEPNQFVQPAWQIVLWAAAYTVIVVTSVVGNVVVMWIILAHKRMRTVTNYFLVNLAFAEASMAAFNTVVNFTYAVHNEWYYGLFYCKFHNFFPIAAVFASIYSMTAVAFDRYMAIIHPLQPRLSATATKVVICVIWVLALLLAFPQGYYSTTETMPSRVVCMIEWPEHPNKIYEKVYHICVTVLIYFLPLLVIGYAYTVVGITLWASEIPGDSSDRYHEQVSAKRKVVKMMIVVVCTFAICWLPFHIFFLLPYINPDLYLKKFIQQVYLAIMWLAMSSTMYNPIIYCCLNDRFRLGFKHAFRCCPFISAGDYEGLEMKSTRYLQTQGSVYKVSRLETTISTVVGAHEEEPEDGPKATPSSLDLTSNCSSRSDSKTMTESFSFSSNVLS

SMILES: CN1C(=O)CN(Cc2n[nH]c(=O)[nH]2)[C@@H](c2ccccc2)[C@H]1COCc1cc(C(F)(F)F)cc(C(F)(F)F)c1 [Compound 26, (5S,6S)-6-(3,5-Bis(trifluoromethyl)benzyloxymethyl)-1-methyl-4-(5-oxo-4,5-dihydro-1H-(1,2,4)triazol-3-ylmethyl)-5-phenylpiperazin-2-one]
IC50 (human NK1 receptors): 0.04 nM | amount of transuded blue dye, Mean ± S.E [1, 4]: 3.6 ± 0.7** | amount of transuded blue dye, Mean ± S.E [1, 5]: 1.0 ± 0.5** | amount of transuded blue dye, Mean ± S.E [1, 6]: 2.6 ± 1.4** | amount of transuded blue dye, Mean ± S.E [1, 7]: 3.6 ± 2.6** | amount of transuded blue dye, Mean ± S.E [1, 8]: 10.1 ± 3.3 | amount of transuded blue dye, Mean ± S.E [2, 4]: 1.4 ± 0.9** | amount of transuded blue dye, Mean ± S.E [2, 5]: 0.1 ± 0.1** | amount of transuded blue dye, Mean ± S.E [2, 6]: 0.5 ± 0.4** | amount of transuded blue dye, Mean ± S.E [2, 7]: 1.0 ± 0.4** | amount of transuded blue dye, Mean ± S.E [2, 8]: 9.4 ± 1.6** | amount of transuded blue dye, Mean ± S.E [3, 4]: 6.2 ± 1.5** | amount of transuded blue dye, Mean ± S.E [3, 5]: 1.4 ± 0.6** | amount of transuded blue dye, Mean ± S.E [3, 6]: 4.3 ± 0.9** | amount of transuded blue dye, Mean ± S.E [3, 7]: 4.9 ± 1.3** | amount of transuded blue dye, Mean ± S.E [3, 8]: 11.9 ± 2.4**

SMILES: Cl.O=C1CN[C@@H](c2ccccc2)[C@@H](COCc2cc(C(F)(F)F)cc(C(F)(F)F)c2)N1
melting point: 219 to 221 °C

SMILES: COc1ccccc1CN(C[C@@H](Cc1c[nH]c2ccccc12)NC(=O)CN1CCC(N2CCCCC2)CC1)C(C)=O [LY-303870, reference compound]
amount of transuded blue dye, Mean ± S.E [1, 4]: 5.3 ± 2.3** | amount of transuded blue dye, Mean ± S.E [1, 5]: 5.8 ± 1.9** | amount of transuded blue dye, Mean ± S.E [1, 6]: 14.5 ± 5.0 | amount of transuded blue dye, Mean ± S.E [1, 9]: 11.1 ± 4.3 | amount of transuded blue dye, Mean ± S.E [1, 7]: 10.8 ± 3.4 | amount of transuded blue dye, Mean ± S.E [2, 4]: 2.0 ± 1.2** | amount of transuded blue dye, Mean ± S.E [2, 5]: 5.0 ± 2.2** | amount of transuded blue dye, Mean ± S.E [2, 6]: 12.0 ± 3.2* | amount of transuded blue dye, Mean ± S.E [2, 9]: 7.7 ± 1.8** | amount of transuded blue dye, Mean ± S.E [2, 7]: 13.6 ± 1.1** | amount of transuded blue dye, Mean ± S.E [3, 4]: 6.3 ± 2.1** | amount of transuded blue dye, Mean ± S.E [3, 5]: 7.8 ± 2.5** | amount of transuded blue dye, Mean ± S.E [3, 6]: 17.0 ± 3.4 | amount of transuded blue dye, Mean ± S.E [3, 9]: 12.2 ± 2.2** | amount of transuded blue dye, Mean ± S.E [3, 7]: 14.4 ± 0.9**

SMILES: CN(C)Cc1[nH]nnc1CN1CC(=O)N(C)[C@H](COCc2cc(C(F)(F)F)cc(C(F)(F)F)c2)[C@@H]1c1ccc(F)cc1.Cl.Cl
melting point: 142 to 145 °C

SMILES: CN(C)Cc1[nH]nnc1CN1CC(=O)N[C@H](COCc2cc(C(F)(F)F)cc(C(F)(F)F)c2)[C@@H]1c1ccc(F)cc1.Cl.Cl
melting point: 213 to 216 °C

More lines, now with the values ahead:

melting point: 138 to 140 °C
SMILES: O=C1CN(Cc2n[nH]c(=O)[nH]2)[C@H](c2ccccc2)[C@H](COCc2cc(C(F)(F)F)cc(C(F)(F)F)c2)N1 [Compound 27, (5R,6R)-6-(3,5-Bis(trifluoromethyl)benzyloxymethyl)-4-(5-oxo-4,5-dihydro-1H-(1,2,4)triazol-3-ylmethyl)-5-phenylpiperazin-2-one]

melting point: 138 to 140 °C
SMILES: O=C1CN(Cc2n[nH]c(=O)[nH]2)[C@@H](c2ccc(F)cc2)[C@@H](COCc2cc(C(F)(F)F)cc(C(F)(F)F)c2)N1 [Compound 40, (5S,6S)-6-(3,5-Bis(trifluoromethyl)benzyloxymethyl)-5-(4-fluorophenyl)-4-(5-oxo-4,5-dihydro-1H-(1,2,4)triazol-3-ylmethyl)piperazin-2-one]

melting point: 212 to 213 °C
SMILES: CN1C(=O)CN(Cc2n[nH]c(=O)[nH]2)[C@@H](c2ccc(F)cc2)[C@H]1COCc1cc(C(F)(F)F)cc(C(F)(F)F)c1 [Compound 38, (5S,6S)-6-(3,5-Bis(trifluoromethyl)benzyloxymethyl)-5-(4-fluorophenyl)-1-methyl-4-(5-oxo-4,5-dihydro-1H-(1,2,4)triazol-3-ylmethyl)piperazin-2-one]

IC50 (human NK1 receptors): 1.5 nM
SMILES: O=C1CN(Cc2n[nH]c(=O)[nH]2)[C@@H](c2ccccc2)[C@@H](COCc2cc(C(F)(F)F)cc(C(F)(F)F)c2)N1 [Compound 12, (5S,6S)-6-(3,5-Bis(trifluoromethyl)benzyloxymethyl)-4-(5-oxo-4,5-dihydro-1H-(1,2,4)triazol-3-ylmethyl)-5-phenylpiperazin-2-one]

IC50 (human NK1 receptors): 0.24 nM | melting point: 129 to 132 °C
SMILES: O=C1CN(Cc2n[nH]c(=O)[nH]2)[C@@H](c2ccc(F)cc2)[C@@H](COCc2cc(C(F)(F)F)cc(C(F)(F)F)c2)N1 [Compound 32, (5S,6S)-6-(3,5-Bis(trifluoromethyl)benzyloxymethyl)-5-(4-fluorophenyl)-4-(5-oxo-4,5-dihydro-1H-(1,2,4)triazol-3-ylmethyl)piperazin-2-one]
